Laboratory results published in ChEMBL document CHEMBL2203257 (Bioorg Med Chem Lett, 2012).

Assays:
[1] = target: Calcium/calmodulin-dependent protein kinase kinase 1 (Homo sapiens, UniProt Q8N5S9); assay: Inhibition of CAMKK1
[2] = target: Cyclin-dependent kinase 2 (Homo sapiens, UniProt P24941); assay: Inhibition of CDK2
[3] = target: Casein kinase II subunit alpha (Homo sapiens, UniProt P68400); assay: Inhibition of CSNK2A1
[4] = target: Casein kinase II subunit alpha' (Homo sapiens, UniProt P19784); assay: Inhibition of CSNK2A2
[5] = target: Tyrosine-protein kinase FRK (Homo sapiens, UniProt P42685); assay: Inhibition of FRK
[6] = target: Inhibitor of nuclear factor kappa-B kinase subunit epsilon (Homo sapiens, UniProt Q14164); assay: Inhibition of IKBKE
[7] = target: Tyrosine-protein kinase ITK/TSK (Homo sapiens, UniProt Q08881); assay: Inhibition of ITK
[8] = target: Tyrosine-protein kinase JAK2 (Homo sapiens, UniProt O60674); assay: Inhibition of JAK2
[9] = target: LIM domain kinase 2 (Homo sapiens, UniProt P53671); assay: Inhibition of LIMK2
[10] = target: Dual specificity mitogen-activated protein kinase kinase 2 (Homo sapiens, UniProt P36507); assay: Inhibition of MAP2K2
[11] = target: Mitogen-activated protein kinase 1 (Homo sapiens, UniProt P28482); assay: Inhibition of MAPK1
[12] = target: Mitogen-activated protein kinase 8 (Homo sapiens, UniProt P45983); assay: Inhibition of MAPK8
[13] = target: Maternal embryonic leucine zipper kinase (Homo sapiens, UniProt Q14680); assay: Inhibition of MELK
[14] = target: Serine/threonine-protein kinase Nek2 (Homo sapiens, UniProt P51955); assay: Inhibition of NEK2
[15] = target: Serine/threonine-protein kinase Nek9 (Homo sapiens, UniProt Q8TD19); assay: Inhibition of NEK9
[16] = target: Phosphorylase b kinase gamma catalytic chain, liver/testis isoform (Homo sapiens, UniProt P15735); assay: Inhibition of PHKG2
[17] = target: Phosphatidylinositol 4,5-bisphosphate 3-kinase catalytic subunit alpha isoform (Homo sapiens, UniProt P42336); assay: Inhibition of PIK3Ca
[18] = target: Phosphatidylinositol 4,5-bisphosphate 3-kinase catalytic subunit beta isoform (Homo sapiens, UniProt P42338); assay: Inhibition of PIK3Cb
[19] = target: T1, Phosphatidylinositol 4,5-bisphosphate 3-kinase catalytic subunit delta isoform (Homo sapiens, UniProt O00329); assay: Inhibition of PIK3Cd
T1 sequence (O00329 whole entry): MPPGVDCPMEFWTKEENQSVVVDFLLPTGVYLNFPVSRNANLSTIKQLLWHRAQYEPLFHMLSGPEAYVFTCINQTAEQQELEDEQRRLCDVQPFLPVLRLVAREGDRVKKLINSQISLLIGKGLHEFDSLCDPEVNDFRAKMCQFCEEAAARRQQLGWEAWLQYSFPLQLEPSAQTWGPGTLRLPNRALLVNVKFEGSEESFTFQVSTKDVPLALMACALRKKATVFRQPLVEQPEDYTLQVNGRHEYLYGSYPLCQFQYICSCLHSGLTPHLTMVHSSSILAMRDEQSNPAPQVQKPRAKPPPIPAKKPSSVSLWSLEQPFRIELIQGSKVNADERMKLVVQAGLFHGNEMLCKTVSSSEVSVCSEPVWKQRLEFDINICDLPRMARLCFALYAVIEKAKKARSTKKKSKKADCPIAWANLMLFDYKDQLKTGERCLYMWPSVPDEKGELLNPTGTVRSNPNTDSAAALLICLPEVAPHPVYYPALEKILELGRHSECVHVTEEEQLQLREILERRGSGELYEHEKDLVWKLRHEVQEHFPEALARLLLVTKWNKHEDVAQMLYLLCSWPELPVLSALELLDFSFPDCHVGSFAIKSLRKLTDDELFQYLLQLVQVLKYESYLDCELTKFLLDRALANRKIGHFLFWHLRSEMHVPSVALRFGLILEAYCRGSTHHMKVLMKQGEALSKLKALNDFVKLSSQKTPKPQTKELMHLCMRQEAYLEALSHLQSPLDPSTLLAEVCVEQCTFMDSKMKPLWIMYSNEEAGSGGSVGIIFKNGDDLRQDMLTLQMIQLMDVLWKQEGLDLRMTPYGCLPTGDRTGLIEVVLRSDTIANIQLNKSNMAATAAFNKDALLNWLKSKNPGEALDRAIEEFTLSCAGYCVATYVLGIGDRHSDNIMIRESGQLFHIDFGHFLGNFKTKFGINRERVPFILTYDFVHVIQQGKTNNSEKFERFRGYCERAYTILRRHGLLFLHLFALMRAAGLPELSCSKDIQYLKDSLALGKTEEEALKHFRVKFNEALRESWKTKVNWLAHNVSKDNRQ

[20] = target: Phosphoinositide 3-kinase regulatory subunit 4 (Homo sapiens, UniProt Q99570); assay: Inhibition of PIK3R4
[21] = target: Serine/threonine-protein kinase N1 (Homo sapiens, UniProt Q16512); assay: Inhibition of PKN1
[22] = target: Serine/threonine-protein kinase RIO2 (Homo sapiens, UniProt Q9BVS4); assay: Inhibition of RIOK2
[23] = target: Receptor-interacting serine/threonine-protein kinase 2 (Homo sapiens, UniProt O43353); assay: Inhibition of RIPK2
[24] = target: Serine/threonine-protein kinase 17B (Homo sapiens, UniProt O94768); assay: Inhibition of STK17B
[25] = target: Serine/threonine-protein kinase TAO3 (Homo sapiens, UniProt Q9H2K8); assay: Inhibition of TAOK3
[26] = target: Tyrosine-protein kinase Tec (Homo sapiens, UniProt P42680); assay: Inhibition of TEC
[27] = target: Serine/threonine-protein kinase ULK3 (Homo sapiens, UniProt Q6PHR2); assay: Inhibition of ULK3
[28] = target: Wee1-like protein kinase (Homo sapiens, UniProt P30291); assay: Inhibition of WEE1
[29] = Half life in rat […] at 5 mg/kg, po; 1 mg/kg, iv; type: ADME, organism-based
[30] = Half life in cynomolgus monkey; type: ADME, organism-based, Macaca fascicularis; settings: in vivo
[31] = system: Mus musculus; assay: Antiarthritic activity against collagen-induced arthritis mouse model assessed as inhibition of disease progression at 10 mg/kg, po BID for 14 days; type: functional; settings: 336 h
[32] = target: Activin receptor type-2A (Homo sapiens, UniProt P27037); assay: Inhibition of ACVR2A
[33] = target: Serine/threonine-protein kinase A-Raf (Homo sapiens, UniProt P10398); assay: Inhibition of ARAF
[34] = target: Serine/threonine-protein kinase B-raf (Homo sapiens, UniProt P15056); assay: Inhibition of BRAF
[35] = target: Bromodomain-containing protein 2 (Homo sapiens, UniProt P25440); assay: Inhibition of BRD2
[36] = target: Mitogen-activated protein kinase 9 (Homo sapiens) (UniProt P45984); assay: Inhibition of MAPK9
[37] = Oral bioavailability in Wistar rat at 5 mg/kg; 1 mg/kg, iv; settings: in vivo

Activin receptor type-2A, sequence (P27037 whole entry): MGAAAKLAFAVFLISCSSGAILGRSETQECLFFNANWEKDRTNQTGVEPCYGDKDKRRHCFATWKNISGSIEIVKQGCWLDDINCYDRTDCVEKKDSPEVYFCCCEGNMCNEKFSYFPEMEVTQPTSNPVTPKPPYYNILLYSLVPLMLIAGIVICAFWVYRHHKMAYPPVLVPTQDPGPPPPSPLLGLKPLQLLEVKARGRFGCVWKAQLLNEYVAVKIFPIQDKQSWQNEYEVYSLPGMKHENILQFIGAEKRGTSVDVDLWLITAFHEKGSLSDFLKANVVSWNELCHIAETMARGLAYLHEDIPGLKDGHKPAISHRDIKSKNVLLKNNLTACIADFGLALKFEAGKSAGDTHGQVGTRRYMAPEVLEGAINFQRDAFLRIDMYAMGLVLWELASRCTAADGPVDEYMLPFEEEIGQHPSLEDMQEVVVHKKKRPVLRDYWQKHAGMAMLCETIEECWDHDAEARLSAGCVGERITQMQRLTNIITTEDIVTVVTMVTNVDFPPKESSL
Calcium/calmodulin-dependent protein kinase kinase 1, sequence (Q8N5S9 whole entry): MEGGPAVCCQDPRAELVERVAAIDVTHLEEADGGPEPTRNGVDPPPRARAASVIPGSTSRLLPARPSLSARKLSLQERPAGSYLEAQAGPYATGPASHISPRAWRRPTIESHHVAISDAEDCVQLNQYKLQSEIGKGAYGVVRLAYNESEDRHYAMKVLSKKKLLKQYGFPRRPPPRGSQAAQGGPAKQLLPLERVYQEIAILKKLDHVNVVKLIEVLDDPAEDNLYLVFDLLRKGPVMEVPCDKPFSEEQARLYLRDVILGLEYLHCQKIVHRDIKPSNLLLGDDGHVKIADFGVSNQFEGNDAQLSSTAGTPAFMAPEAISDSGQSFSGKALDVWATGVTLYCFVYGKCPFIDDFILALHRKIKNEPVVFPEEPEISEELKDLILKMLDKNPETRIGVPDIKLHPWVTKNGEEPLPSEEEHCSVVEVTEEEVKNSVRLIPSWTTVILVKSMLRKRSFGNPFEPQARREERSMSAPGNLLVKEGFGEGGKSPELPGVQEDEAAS
Serine/threonine-protein kinase Nek9, sequence (Q8TD19 whole entry, canonical isoform): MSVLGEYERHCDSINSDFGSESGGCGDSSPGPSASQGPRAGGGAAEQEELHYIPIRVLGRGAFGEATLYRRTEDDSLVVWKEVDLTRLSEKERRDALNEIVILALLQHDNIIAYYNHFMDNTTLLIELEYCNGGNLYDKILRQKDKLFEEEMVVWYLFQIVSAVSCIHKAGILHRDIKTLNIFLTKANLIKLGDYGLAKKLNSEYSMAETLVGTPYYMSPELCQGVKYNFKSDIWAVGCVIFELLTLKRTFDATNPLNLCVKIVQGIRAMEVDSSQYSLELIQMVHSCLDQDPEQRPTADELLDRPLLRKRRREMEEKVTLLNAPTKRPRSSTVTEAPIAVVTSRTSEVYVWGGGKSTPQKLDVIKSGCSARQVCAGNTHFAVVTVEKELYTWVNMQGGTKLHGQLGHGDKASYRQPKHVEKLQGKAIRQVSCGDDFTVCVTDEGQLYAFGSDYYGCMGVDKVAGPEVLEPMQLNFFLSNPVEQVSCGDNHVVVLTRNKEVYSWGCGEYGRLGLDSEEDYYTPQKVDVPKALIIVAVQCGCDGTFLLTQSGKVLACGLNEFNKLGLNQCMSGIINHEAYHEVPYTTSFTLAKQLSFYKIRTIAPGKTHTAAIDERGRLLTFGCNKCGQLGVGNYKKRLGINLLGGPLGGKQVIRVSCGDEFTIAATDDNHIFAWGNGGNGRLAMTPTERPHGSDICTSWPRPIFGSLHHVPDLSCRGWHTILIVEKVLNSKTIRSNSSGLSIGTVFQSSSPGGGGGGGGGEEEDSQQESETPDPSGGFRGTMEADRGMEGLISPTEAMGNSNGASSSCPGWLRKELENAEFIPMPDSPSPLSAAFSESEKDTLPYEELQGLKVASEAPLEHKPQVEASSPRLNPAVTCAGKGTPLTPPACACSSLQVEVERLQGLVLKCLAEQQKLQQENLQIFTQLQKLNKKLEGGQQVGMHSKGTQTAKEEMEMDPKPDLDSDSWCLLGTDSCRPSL
Phosphatidylinositol 4,5-bisphosphate 3-kinase catalytic subunit beta isoform, sequence (P42338 whole entry, canonical isoform): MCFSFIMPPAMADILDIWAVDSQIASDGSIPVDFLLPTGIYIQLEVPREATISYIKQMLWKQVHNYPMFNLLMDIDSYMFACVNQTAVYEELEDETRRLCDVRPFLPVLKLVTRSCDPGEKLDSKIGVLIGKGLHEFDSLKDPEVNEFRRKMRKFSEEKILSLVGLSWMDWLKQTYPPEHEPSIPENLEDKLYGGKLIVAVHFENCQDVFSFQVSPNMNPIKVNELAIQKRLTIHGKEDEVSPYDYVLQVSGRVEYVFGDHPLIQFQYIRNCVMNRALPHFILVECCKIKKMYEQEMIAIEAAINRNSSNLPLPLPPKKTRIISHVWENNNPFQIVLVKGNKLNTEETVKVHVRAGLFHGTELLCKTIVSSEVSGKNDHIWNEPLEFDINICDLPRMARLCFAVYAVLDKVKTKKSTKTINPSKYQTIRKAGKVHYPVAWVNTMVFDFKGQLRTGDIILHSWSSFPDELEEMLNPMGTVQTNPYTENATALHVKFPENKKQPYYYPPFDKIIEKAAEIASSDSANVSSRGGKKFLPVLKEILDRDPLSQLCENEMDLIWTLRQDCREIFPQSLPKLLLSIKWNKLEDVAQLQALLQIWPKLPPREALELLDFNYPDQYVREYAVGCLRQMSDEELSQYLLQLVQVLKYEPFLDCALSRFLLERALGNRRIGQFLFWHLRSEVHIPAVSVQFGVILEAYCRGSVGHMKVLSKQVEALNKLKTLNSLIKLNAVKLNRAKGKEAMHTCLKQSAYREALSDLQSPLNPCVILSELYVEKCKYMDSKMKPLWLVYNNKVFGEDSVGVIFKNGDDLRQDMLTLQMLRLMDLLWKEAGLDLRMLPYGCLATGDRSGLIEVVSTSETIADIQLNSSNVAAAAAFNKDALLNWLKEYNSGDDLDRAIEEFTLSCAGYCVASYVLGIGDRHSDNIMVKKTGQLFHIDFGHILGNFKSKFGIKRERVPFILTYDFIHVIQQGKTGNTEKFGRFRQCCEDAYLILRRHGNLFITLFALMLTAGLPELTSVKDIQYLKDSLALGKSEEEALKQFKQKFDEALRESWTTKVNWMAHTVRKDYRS
Serine/threonine-protein kinase A-Raf, sequence (P10398 whole entry): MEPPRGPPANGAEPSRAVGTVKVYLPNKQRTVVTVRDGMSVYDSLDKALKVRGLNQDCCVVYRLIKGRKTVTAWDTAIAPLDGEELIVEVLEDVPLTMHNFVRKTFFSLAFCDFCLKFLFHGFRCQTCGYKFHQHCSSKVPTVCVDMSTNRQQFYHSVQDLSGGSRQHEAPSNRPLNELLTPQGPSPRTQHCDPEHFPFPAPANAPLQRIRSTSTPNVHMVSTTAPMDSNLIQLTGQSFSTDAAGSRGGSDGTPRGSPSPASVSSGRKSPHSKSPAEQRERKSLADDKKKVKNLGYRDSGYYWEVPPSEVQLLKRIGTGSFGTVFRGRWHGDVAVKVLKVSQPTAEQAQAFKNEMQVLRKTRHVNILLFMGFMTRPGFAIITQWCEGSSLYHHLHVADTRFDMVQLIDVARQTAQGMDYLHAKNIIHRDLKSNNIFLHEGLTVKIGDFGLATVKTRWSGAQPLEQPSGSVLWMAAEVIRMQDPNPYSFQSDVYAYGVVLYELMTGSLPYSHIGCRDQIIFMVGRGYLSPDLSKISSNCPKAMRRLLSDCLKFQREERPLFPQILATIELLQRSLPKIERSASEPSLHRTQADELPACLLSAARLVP
Bromodomain-containing protein 2, sequence (P25440 whole entry): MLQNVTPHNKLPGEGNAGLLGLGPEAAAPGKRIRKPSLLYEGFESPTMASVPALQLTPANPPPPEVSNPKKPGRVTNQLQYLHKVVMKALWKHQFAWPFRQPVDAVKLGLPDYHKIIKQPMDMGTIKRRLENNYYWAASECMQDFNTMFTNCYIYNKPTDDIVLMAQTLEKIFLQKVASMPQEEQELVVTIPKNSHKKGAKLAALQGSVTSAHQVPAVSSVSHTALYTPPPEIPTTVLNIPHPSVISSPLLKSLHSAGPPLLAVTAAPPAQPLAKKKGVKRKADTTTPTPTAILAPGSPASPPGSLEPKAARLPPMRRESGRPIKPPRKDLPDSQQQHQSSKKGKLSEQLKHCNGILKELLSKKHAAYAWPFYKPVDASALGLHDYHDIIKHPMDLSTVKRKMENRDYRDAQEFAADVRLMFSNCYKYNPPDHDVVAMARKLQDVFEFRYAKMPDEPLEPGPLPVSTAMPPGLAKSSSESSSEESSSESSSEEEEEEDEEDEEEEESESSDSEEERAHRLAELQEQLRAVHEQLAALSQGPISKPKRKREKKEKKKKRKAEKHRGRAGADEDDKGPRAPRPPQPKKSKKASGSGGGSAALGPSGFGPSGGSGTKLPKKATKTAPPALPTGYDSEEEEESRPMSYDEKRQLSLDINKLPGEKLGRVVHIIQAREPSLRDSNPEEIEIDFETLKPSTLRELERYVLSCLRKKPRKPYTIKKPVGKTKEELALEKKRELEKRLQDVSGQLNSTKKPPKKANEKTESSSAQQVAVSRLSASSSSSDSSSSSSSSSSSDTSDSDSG
Serine/threonine-protein kinase ULK3, sequence (Q6PHR2 whole entry): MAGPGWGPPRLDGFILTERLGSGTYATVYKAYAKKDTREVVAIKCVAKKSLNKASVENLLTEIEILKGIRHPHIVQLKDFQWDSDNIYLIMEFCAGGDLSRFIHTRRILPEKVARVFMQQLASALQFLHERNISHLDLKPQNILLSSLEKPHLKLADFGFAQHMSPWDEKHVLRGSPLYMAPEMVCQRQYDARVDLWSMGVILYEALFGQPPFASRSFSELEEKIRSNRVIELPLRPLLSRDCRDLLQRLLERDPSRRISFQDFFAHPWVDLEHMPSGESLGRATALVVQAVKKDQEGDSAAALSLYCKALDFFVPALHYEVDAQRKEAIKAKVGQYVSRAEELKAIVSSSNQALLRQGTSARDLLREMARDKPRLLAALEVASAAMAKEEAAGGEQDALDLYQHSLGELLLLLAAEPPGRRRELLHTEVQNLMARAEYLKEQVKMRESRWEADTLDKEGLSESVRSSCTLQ

## CC(C)(C)NS(=O)(=O)c1cncc(-c2ccn3nc(N)nc3c2)c1
[1]
  IC50: > 10 µM
[2]
  IC50: > 10 µM
[3]
  IC50: > 10 µM
[4]
  IC50: > 10 µM
[5]
  IC50: > 10 µM
[6]
  IC50: > 10 µM
[7]
  IC50: > 10 µM
[8]
  IC50: > 10 µM
[9]
  IC50: > 10 µM
[10]
  IC50: > 10 µM
[11]
  IC50: > 10 µM
[12]
  IC50: > 10 µM
[13]
  IC50: > 10 µM
[14]
  IC50: > 10 µM
[15]
  IC50: > 10 µM
[16]
  IC50: > 10 µM
[17]
  IC50: 2.45 µM
[18]
  IC50: 0.49 µM
[19]
  IC50: 0.708 µM
[20]
  IC50: > 10 µM
[21]
  IC50: > 10 µM
[22]
  IC50: > 5.89 µM
[23]
  IC50: > 10 µM
[24]
  IC50: > 10 µM
[25]
  IC50: > 10 µM
[26]
  IC50: > 10 µM
[27]
  IC50: > 10 µM
[28]
  IC50: > 10 µM
[29]
  half-life: 1.2 h
[30]
  half-life: 6.1 h
[31]
  inhibition in vivo at 10 mg/kg: 46%
[32]
  IC50: > 10 µM
[33]
  IC50: > 10 µM
[34]
  IC50: > 10 µM
[35]
  IC50: > 10 µM
[36]
  IC50: > 10 µM
[37]
  bioavailability: 81%
